Values of other authors in US6107296A, “Neuroprotective use of triazolo-pyridazine derivatives” (Merck Sharp & Dohme, Ltd., priority 1997, dated 2000).

Legend:
[1] = system: selectively vulnerable neuronal populations in the gerbil forebrain; details: gerbil forebrain ischemia model
[2] = system: GABAA receptor subtypes containing the α1 and α3 or α5 subunits
[3] = system: GABAA receptor subtypes containing the α1 and α3 or α5 subunits; details: partial agonist at each of the α1, α3 or α5 containing receptors

SMILES: C[C@@H]1CN(C(=O)c2cc3c(C(=O)OC(C)(C)C)ncn3c3ccc(Cl)cc23)C[C@H](C)N1 [PNU-101017]
- neuronal survival [1]: dose-related increase in neuronal survival
- affinity for GABAA receptor subtypes [2]: high affinity
- intrinsic activity relative to the full agonist diazepam [3]: approximately 50%
